Measurements as given in ChEMBL document CHEMBL1201862, “PubChem BioAssay data set” (2004).
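Values below derive from 48-hour exposures of cells grown in 96-well plates, with endpoints linearly interpolated between the two concentrations bracketing the appropriate inhibition level. The concentration for 50% growth inhibition is given as GI50.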 Activity calls are given as the source filed them. Cut-off read from the data, not from the text of the source: active = GI50 up to about 1.1 µM and inactive = higher.

Legend:
Assay in all cases: NCI anticancer screen, dose series, 48 h
[1] = tested on: 786-0
[2] = tested on: A498
[3] = tested on: A549
[4] = tested on: ACHN
[5] = tested on: CAKI-1
[6] = tested on: CCRF-CEM
[7] = tested on: COLO 205
[8] = tested on: DLD-1
[9] = tested on: DMS-114
[10] = tested on: DMS-273
[11] = tested on: EKVX
[12] = tested on: HCC 2998
[13] = tested on: HCT-116
[14] = tested on: HCT-15
[15] = tested on: HL-60
[16] = tested on: HOP-18
[17] = tested on: HOP-62
[18] = tested on: HOP-92
[19] = tested on: HT-29
[20] = tested on: IGROV-1
[21] = tested on: K562
[22] = tested on: KM-20L2
[23] = tested on: KM12
[24] = tested on: LOX IMVI
[25] = tested on: LXFL 529
[26] = tested on: M14
[27] = tested on: M19-MEL
[28] = tested on: MOLT-4
[29] = tested on: Malme-3M
[30] = tested on: NCI-H226
[31] = tested on: NCI-H23
[32] = tested on: NCI-H460
[33] = tested on: NCI-H522
[34] = tested on: OVCAR-3
[35] = tested on: OVCAR-4
[36] = tested on: OVCAR-5
[37] = tested on: OVCAR-8
[38] = tested on: RPMI-8226
[39] = tested on: RXF 393
[40] = tested on: RXF 631
[41] = tested on: SF-268
[42] = tested on: SF-295
[43] = tested on: SF-539
[44] = tested on: SK-MEL-28
[45] = tested on: SK-MEL-2
[46] = tested on: SK-MEL-5
[47] = tested on: SK-OV-3
[48] = tested on: SN12C
[49] = tested on: SNB-19
[50] = tested on: SNB-75
[51] = tested on: SNB-78
[52] = tested on: SR
[53] = tested on: SW-620
[54] = tested on: TK-10
[55] = tested on: U-251
[56] = tested on: UACC-257
[57] = tested on: UACC-62
[58] = tested on: UO-31
[59] = tested on: XF498

CC(C)N(C(=O)C12C3C4C5(C#N)C3C1(C#N)C5C42I)C(C)C (configuration not stated)
GI50 [1]: > 100 µM (inactive)
GI50 [2]: > 100 µM (inactive)
GI50 [3]: > 59 µM (inactive)
GI50 [4]: > 100 µM (inactive)
GI50 [5]: > 100 µM (inactive)
GI50 [6]: > 39.9 µM (inactive)
GI50 [7]: > 45.4 µM (inactive)
GI50 [8]: > 42.6 µM (inactive)
GI50 [9]: > 44.4 µM (inactive)
GI50 [10]: > 43.4 µM (inactive)
GI50 [11]: > 100 µM (inactive)
GI50 [12]: > 100 µM (inactive)
GI50 [13]: 17.4 µM (inactive)
GI50 [14]: > 78.5 µM
GI50 [15]: > 41 µM (inactive)
GI50 [16]: > 100 µM (inactive)
GI50 [17]: > 100 µM (inactive)
GI50 [18]: > 100 µM (inactive)
GI50 [19]: > 100 µM (inactive)
GI50 [20]: > 100 µM (inactive)
GI50 [21]: > 42.2 µM (inactive)
GI50 [22]: > 100 µM (inactive)
GI50 [23]: > 100 µM (inactive)
GI50 [24]: > 49.5 µM (inactive)
GI50 [25]: > 100 µM (inactive)
GI50 [26]: > 100 µM (inactive)
GI50 [27]: 97.1 µM (inactive)
GI50 [28]: 40.8 µM (inactive)
GI50 [29]: > 100 µM (inactive)
GI50 [30]: > 100 µM (inactive)
GI50 [31]: > 100 µM (inactive)
GI50 [32]: > 53.6 µM (inactive)
GI50 [33]: > 33.7 µM (inactive)
GI50 [34]: > 100 µM (inactive)
GI50 [35]: > 100 µM (inactive)
GI50 [36]: > 100 µM (inactive)
GI50 [37]: > 85.5 µM (inactive)
GI50 [38]: > 46.1 µM (inactive)
GI50 [39]: > 100 µM (inactive)
GI50 [40]: > 100 µM (inactive)
GI50 [41]: > 100 µM (inactive)
GI50 [42]: > 100 µM (inactive)
GI50 [43]: > 100 µM (inactive)
GI50 [44]: > 100 µM (inactive)
GI50 [45]: > 100 µM (inactive)
GI50 [46]: > 100 µM (inactive)
GI50 [47]: > 100 µM (inactive)
GI50 [48]: > 100 µM (inactive)
GI50 [49]: > 100 µM (inactive)
GI50 [50]: > 59 µM (inactive)
GI50 [51]: > 100 µM (inactive)
GI50 [52]: 13.4 µM (inactive)
GI50 [53]: > 41.4 µM (inactive)
GI50 [54]: > 100 µM (inactive)
GI50 [55]: > 100 µM (inactive)
GI50 [56]: > 100 µM (inactive)
GI50 [57]: > 100 µM (inactive)
GI50 [58]: > 100 µM (inactive)
GI50 [59]: > 100 µM (inactive)

O=C(CC1OC(O)C(Cl)=C1Cl)c1cccnc1 (configuration not stated)
GI50 [1]: > 41.5 µM (inactive)
GI50 [2]: > 100 µM (inactive)
GI50 [3]: > 100 µM (inactive)
GI50 [4]: > 31.6 µM (inactive)
GI50 [5]: > 100 µM (inactive)
GI50 [6]: > 100 µM (inactive)
GI50 [7]: > 100 µM (inactive)
GI50 [9]: > 41.1 µM (inactive)
GI50 [10]: > 53 µM (inactive)
GI50 [11]: > 100 µM (inactive)
GI50 [12]: > 71.8 µM (inactive)
GI50 [13]: > 39.8 µM (inactive)
GI50 [14]: > 41.1 µM
GI50 [15]: > 100 µM (inactive)
GI50 [16]: > 100 µM (inactive)
GI50 [17]: > 50.2 µM (inactive)
GI50 [18]: > 100 µM (inactive)
GI50 [19]: > 42.3 µM (inactive)
GI50 [20]: > 100 µM (inactive)
GI50 [21]: > 100 µM (inactive)
GI50 [22]: > 100 µM (inactive)
GI50 [23]: > 100 µM (inactive)
GI50 [24]: > 100 µM (inactive)
GI50 [25]: > 56.1 µM (inactive)
GI50 [26]: > 100 µM (inactive)
GI50 [27]: > 62.4 µM (inactive)
GI50 [28]: > 100 µM (inactive)
GI50 [29]: > 100 µM (inactive)
GI50 [30]: > 100 µM (inactive)
GI50 [31]: > 100 µM (inactive)
GI50 [32]: > 73.5 µM (inactive)
GI50 [33]: > 100 µM (inactive)
GI50 [34]: > 100 µM (inactive)
GI50 [35]: > 100 µM (inactive)
GI50 [36]: > 100 µM (inactive)
GI50 [37]: > 100 µM (inactive)
GI50 [38]: > 34.7 µM (inactive)
GI50 [39]: > 100 µM (inactive)
GI50 [40]: > 100 µM (inactive)
GI50 [41]: > 68.4 µM (inactive)
GI50 [42]: > 100 µM (inactive)
GI50 [43]: 0.359 µM (active)
GI50 [44]: > 42.7 µM (inactive)
GI50 [46]: 83.8 µM (inactive)
GI50 [47]: > 100 µM (inactive)
GI50 [48]: > 100 µM (inactive)
GI50 [49]: > 100 µM (inactive)
GI50 [50]: > 100 µM (inactive)
GI50 [51]: > 100 µM (inactive)
GI50 [52]: > 100 µM (inactive)
GI50 [54]: > 100 µM (inactive)
GI50 [55]: > 41.2 µM (inactive)
GI50 [56]: > 100 µM (inactive)
GI50 [57]: > 100 µM (inactive)
GI50 [58]: > 100 µM (inactive)
GI50 [59]: > 100 µM (inactive)

CC(C)NC(=O)OCc1nnn2c1C(OC(=O)NC(C)C)CC2 (configuration not stated)
GI50 [1]: > 100 µM (inactive)
GI50 [3]: > 100 µM (inactive)
GI50 [5]: > 100 µM (inactive)
GI50 [7]: > 100 µM (inactive)
GI50 [8]: > 100 µM (inactive)
GI50 [9]: > 100 µM (inactive)
GI50 [10]: > 100 µM (inactive)
GI50 [11]: > 100 µM (inactive)
GI50 [12]: > 100 µM (inactive)
GI50 [13]: > 100 µM (inactive)
GI50 [14]: > 100 µM
GI50 [16]: > 100 µM (inactive)
GI50 [18]: > 100 µM (inactive)
GI50 [19]: > 100 µM (inactive)
GI50 [20]: > 100 µM (inactive)
GI50 [21]: > 100 µM (inactive)
GI50 [22]: > 100 µM (inactive)
GI50 [23]: > 100 µM (inactive)
GI50 [25]: > 100 µM (inactive)
GI50 [26]: > 100 µM (inactive)
GI50 [27]: > 100 µM (inactive)
GI50 [28]: > 100 µM (inactive)
GI50 [29]: > 100 µM (inactive)
GI50 [30]: > 100 µM (inactive)
GI50 [31]: > 100 µM (inactive)
GI50 [32]: > 100 µM (inactive)
GI50 [33]: > 100 µM (inactive)
GI50 [34]: > 100 µM (inactive)
GI50 [35]: > 100 µM (inactive)
GI50 [36]: > 100 µM (inactive)
GI50 [37]: > 100 µM (inactive)
GI50 [38]: > 100 µM (inactive)
GI50 [39]: > 100 µM (inactive)
GI50 [40]: > 100 µM (inactive)
GI50 [42]: > 100 µM (inactive)
GI50 [43]: > 100 µM (inactive)
GI50 [44]: > 100 µM (inactive)
GI50 [45]: > 100 µM (inactive)
GI50 [46]: > 100 µM (inactive)
GI50 [47]: > 100 µM (inactive)
GI50 [48]: > 100 µM (inactive)
GI50 [49]: > 100 µM (inactive)
GI50 [50]: > 100 µM (inactive)
GI50 [51]: > 100 µM (inactive)
GI50 [52]: > 100 µM (inactive)
GI50 [53]: > 100 µM (inactive)
GI50 [54]: > 100 µM (inactive)
GI50 [55]: > 100 µM (inactive)
GI50 [56]: > 100 µM (inactive)
GI50 [57]: > 100 µM (inactive)
GI50 [58]: > 100 µM (inactive)
GI50 [59]: > 100 µM (inactive)

CC(=O)NC1C(O)CC(OCCCSCCN)(C(=O)O)OC1C(O)C(O)CO (configuration not stated)
GI50 [2]: > 100 µM (inactive)
GI50 [3]: > 100 µM (inactive)
GI50 [4]: > 100 µM (inactive)
GI50 [5]: > 100 µM (inactive)
GI50 [6]: > 100 µM (inactive)
GI50 [7]: > 100 µM (inactive)
GI50 [8]: > 100 µM (inactive)
GI50 [9]: > 100 µM (inactive)
GI50 [10]: > 100 µM (inactive)
GI50 [11]: > 100 µM (inactive)
GI50 [12]: > 100 µM (inactive)
GI50 [13]: > 100 µM (inactive)
GI50 [14]: > 100 µM
GI50 [15]: > 100 µM (inactive)
GI50 [16]: > 100 µM (inactive)
GI50 [18]: > 100 µM (inactive)
GI50 [19]: > 100 µM (inactive)
GI50 [20]: > 100 µM (inactive)
GI50 [22]: > 100 µM (inactive)
GI50 [23]: > 100 µM (inactive)
GI50 [24]: > 100 µM (inactive)
GI50 [25]: > 100 µM (inactive)
GI50 [26]: > 100 µM (inactive)
GI50 [28]: > 100 µM (inactive)
GI50 [29]: > 100 µM (inactive)
GI50 [30]: > 100 µM (inactive)
GI50 [31]: > 100 µM (inactive)
GI50 [32]: > 100 µM (inactive)
GI50 [35]: > 100 µM (inactive)
GI50 [36]: > 100 µM (inactive)
GI50 [37]: > 100 µM (inactive)
GI50 [38]: > 100 µM (inactive)
GI50 [39]: > 100 µM (inactive)
GI50 [40]: > 100 µM (inactive)
GI50 [41]: > 100 µM (inactive)
GI50 [42]: > 100 µM (inactive)
GI50 [43]: > 100 µM (inactive)
GI50 [44]: > 100 µM (inactive)
GI50 [45]: > 100 µM (inactive)
GI50 [46]: > 100 µM (inactive)
GI50 [48]: > 100 µM (inactive)
GI50 [49]: > 100 µM (inactive)
GI50 [50]: > 100 µM (inactive)
GI50 [51]: > 100 µM (inactive)
GI50 [52]: > 100 µM (inactive)
GI50 [53]: > 100 µM (inactive)
GI50 [54]: > 100 µM (inactive)
GI50 [55]: > 100 µM (inactive)
GI50 [56]: > 100 µM (inactive)
GI50 [59]: > 100 µM (inactive)
